Assay results taken from ChEMBL document CHEMBL1201862, “PubChem BioAssay data set” (2004).
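Five concentrations, 48 hours, 96-well plates. Abbreviation: GI50, concentration required for 50% inhibition of growth.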 Active and inactive are the calls of the source. Cut-off read from the data, not from the text of the source: active = GI50 up to about 1.1 µM and inactive = higher.

Experiments:
Experiment in all cases: DTP human tumour cell line panel, 48 h
SF-295 = system: SF-295
M14 = system: M14
HT-29 = system: HT-29
OVCAR-8 = system: OVCAR-8
MCF7 = system: MCF7
ACHN = system: ACHN
T47D = system: T47D
TK-10 = system: TK-10
OVCAR-3 = system: OVCAR-3
OVCAR-5 = system: OVCAR-5
Hs-578T = system: Hs-578T
A498 = system: A498
SK-MEL-5 = system: SK-MEL-5
NCI-H23 = system: NCI-H23
HOP-92 = system: HOP-92
CCRF-CEM = system: CCRF-CEM
OVCAR-4 = system: OVCAR-4
SK-MEL-2 = system: SK-MEL-2
MDA-MB-231 = system: MDA-MB-231

Measured: GI50

O=c1ccn(C2OC(CN(O)CCC3C(CO)OC(n4ccc(=O)[nH]c4=O)C3O)C(O)C2O)c(=O)[nH]1 (centres undefined)
inactive: SF-295 > 100 µM | M14 > 100 µM | HT-29 > 100 µM | OVCAR-8 > 100 µM | MCF7 > 100 µM | ACHN > 100 µM | T47D > 100 µM | TK-10 > 100 µM | OVCAR-3 > 100 µM | OVCAR-5 > 100 µM | Hs-578T > 100 µM | A498 > 100 µM | SK-MEL-5 > 100 µM | NCI-H23 > 100 µM | HOP-92 > 100 µM | CCRF-CEM > 100 µM | OVCAR-4 > 100 µM | SK-MEL-2 > 100 µM | MDA-MB-231 > 100 µM

BrCC[P+](c1ccccc1)(c1ccccc1)c1ccccc1
inactive: SF-295 30.8 µM | M14 4.15 µM | HT-29 13.3 µM | OVCAR-8 3.1 µM | MCF7 13.5 µM | ACHN 3.18 µM | T47D 1.27 µM | TK-10 16.9 µM | OVCAR-3 2.59 µM | OVCAR-5 10.8 µM | Hs-578T 20.4 µM | A498 11.4 µM | SK-MEL-5 8.11 µM | HOP-92 3.57 µM | CCRF-CEM 2.25 µM | OVCAR-4 6.5 µM | SK-MEL-2 5.26 µM | MDA-MB-231 18.3 µM

Cc1ccsc1/C=N/Nc1ncccn1
inactive: SF-295 > 100 µM | M14 > 100 µM | HT-29 > 100 µM | OVCAR-8 > 100 µM | ACHN > 100 µM | T47D > 100 µM | TK-10 > 100 µM | OVCAR-3 > 100 µM | OVCAR-5 > 100 µM | Hs-578T > 100 µM | A498 > 100 µM | SK-MEL-5 > 100 µM | NCI-H23 > 100 µM | HOP-92 > 100 µM | CCRF-CEM > 100 µM | OVCAR-4 > 100 µM | SK-MEL-2 > 100 µM | MDA-MB-231 > 100 µM
active: MCF7 0.741 µM

CC(=O)Nc1nc(C)c(S(=O)(=O)NC(=O)NC2NC(=O)NC2=O)s1 (centres undefined)
inactive: SF-295 > 100 µM | M14 > 100 µM | HT-29 > 100 µM | OVCAR-8 > 100 µM | MCF7 > 100 µM | ACHN > 100 µM | T47D > 100 µM | TK-10 > 100 µM | OVCAR-3 > 100 µM | OVCAR-5 > 100 µM | Hs-578T > 100 µM | A498 > 100 µM | SK-MEL-5 > 100 µM | NCI-H23 > 100 µM | HOP-92 > 100 µM | CCRF-CEM > 100 µM | OVCAR-4 > 100 µM | SK-MEL-2 > 100 µM | MDA-MB-231 > 100 µM

C/C(=N\NC(=S)N1CCOCC1)c1nc2cccnc2[nH]1
inactive: SF-295 23.8 µM | M14 68.2 µM | HT-29 37.2 µM | OVCAR-8 21.4 µM | MCF7 30.5 µM | ACHN 25.4 µM | T47D 29.4 µM | TK-10 31.8 µM | OVCAR-3 31 µM | OVCAR-5 59.6 µM | Hs-578T 39.2 µM | A498 > 100 µM | SK-MEL-5 27.6 µM | NCI-H23 35.2 µM | HOP-92 14.1 µM | CCRF-CEM 30.3 µM | OVCAR-4 13.7 µM | SK-MEL-2 17.9 µM | MDA-MB-231 28.9 µM

COC(=O)C1CCCCCCCCCCC12SCCCS2 (centres undefined)
inactive: SF-295 16.5 µM | M14 15.5 µM | HT-29 32.8 µM | OVCAR-8 23.4 µM | MCF7 43.9 µM | ACHN 19 µM | T47D 35.7 µM | TK-10 20.1 µM | OVCAR-3 18.4 µM | OVCAR-5 16.8 µM | Hs-578T 30.4 µM | A498 29.5 µM | SK-MEL-5 18.7 µM | NCI-H23 34.8 µM | HOP-92 19.4 µM | CCRF-CEM 23 µM | OVCAR-4 16.5 µM | SK-MEL-2 18.6 µM | MDA-MB-231 21.7 µM

C=C1c2nc3ccccc3n2C=C(c2ccc(C)cc2)N1c1ccc(OC)cc1
inactive: SF-295 33.7 µM | M14 58.2 µM | HT-29 8.89 µM | OVCAR-8 75.5 µM | MCF7 15.3 µM | ACHN 61.5 µM | T47D 26.2 µM | TK-10 > 83.4 µM | OVCAR-3 46.8 µM | OVCAR-5 > 100 µM | Hs-578T > 77.4 µM | A498 > 72.9 µM | SK-MEL-5 13.7 µM | NCI-H23 > 73.6 µM | HOP-92 > 48.2 µM | CCRF-CEM 34.4 µM | OVCAR-4 > 94.2 µM | SK-MEL-2 60.7 µM | MDA-MB-231 > 100 µM

COc1ccc(C2=NNC(=O)c3ccccc3N2c2nc(-c3cccs3)nc3cc(OC)c(OC)cc23)cc1
inactive: SF-295 3.95 µM | M14 4.29 µM | HT-29 3.15 µM | OVCAR-8 5.05 µM | MCF7 3.36 µM | ACHN 3.07 µM | T47D 2.76 µM | TK-10 5.24 µM | OVCAR-3 2.61 µM | OVCAR-5 27.7 µM | Hs-578T 3.85 µM | A498 2.61 µM | SK-MEL-5 3.72 µM | NCI-H23 7.13 µM | HOP-92 2.86 µM | OVCAR-4 1.8 µM | SK-MEL-2 5.27 µM | MDA-MB-231 2.81 µM

COCOc1cc(OCOC)cc(C(=O)Oc2ccccc2)c1
inactive: SF-295 > 100 µM | M14 > 100 µM | HT-29 > 100 µM | OVCAR-8 > 100 µM | MCF7 > 100 µM | ACHN > 100 µM | T47D 57.4 µM | TK-10 > 100 µM | OVCAR-3 > 100 µM | OVCAR-5 > 100 µM | Hs-578T 43.1 µM | A498 > 100 µM | SK-MEL-5 > 100 µM | NCI-H23 > 100 µM | HOP-92 > 100 µM | OVCAR-4 > 100 µM | SK-MEL-2 > 100 µM | MDA-MB-231 > 100 µM

COc1c(O)cc2oc(-c3ccc(O)cc3)cc(=O)c2c1O [HISPIDULIN]
inactive: SF-295 44.1 µM | M14 38.6 µM | HT-29 45.7 µM | MCF7 52 µM | ACHN 26.8 µM | T47D 33.4 µM | TK-10 39.2 µM | OVCAR-3 44.1 µM | OVCAR-5 75.2 µM | Hs-578T 18.9 µM | A498 2.57 µM | SK-MEL-5 15.5 µM | NCI-H23 42.2 µM | HOP-92 2.91 µM | CCRF-CEM 20.6 µM | OVCAR-4 35.8 µM | SK-MEL-2 27.2 µM | MDA-MB-231 74.5 µM

COc1ccc2c(c1)C(N)=C(Cc1ccncc1)C2=O
inactive: SF-295 > 100 µM | M14 > 100 µM | HT-29 > 100 µM | OVCAR-8 > 100 µM | MCF7 82.4 µM | ACHN > 100 µM | T47D 55.2 µM | TK-10 > 100 µM | OVCAR-3 > 100 µM | Hs-578T > 100 µM | A498 > 100 µM | SK-MEL-5 > 100 µM | NCI-H23 > 100 µM | HOP-92 31.4 µM | CCRF-CEM 75.2 µM | OVCAR-4 98.4 µM | SK-MEL-2 > 100 µM | MDA-MB-231 > 100 µM
